The assay addresses T1, hM1 mAChR (Homo sapiens, UniProt P11229).
T1 construct: expressed in transfected cells
T1 sequence (P11229 1-460): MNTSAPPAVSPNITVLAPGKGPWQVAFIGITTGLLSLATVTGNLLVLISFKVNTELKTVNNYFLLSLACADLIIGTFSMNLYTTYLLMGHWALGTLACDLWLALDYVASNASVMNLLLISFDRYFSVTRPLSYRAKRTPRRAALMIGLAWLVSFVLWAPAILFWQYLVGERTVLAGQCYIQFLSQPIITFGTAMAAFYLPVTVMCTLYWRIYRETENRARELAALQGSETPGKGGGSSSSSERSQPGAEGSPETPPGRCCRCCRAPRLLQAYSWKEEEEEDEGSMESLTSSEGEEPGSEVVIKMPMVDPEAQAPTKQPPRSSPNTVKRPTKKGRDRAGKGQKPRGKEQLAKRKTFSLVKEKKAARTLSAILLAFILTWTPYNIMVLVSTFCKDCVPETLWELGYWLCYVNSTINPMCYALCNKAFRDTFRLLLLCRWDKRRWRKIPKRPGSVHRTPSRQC
Briefly: IP1 accumulation assay (ACh concentration-response curves in absence or presence of modulator). As to conditions: FlpIn CHO hM1 cells, mean ± SEM, 3 experiments; for ΔpEC50 [1 μM]: change in ACh pEC50 in presence of M1 PAM compared to control curve / activation at 1 µM: 1 μM modulator; for activation at 1 µM: read-out: Δbaseline [1 μM]: change in basal response in presence of M1 PAM compared to control curve; for activation at 10 µM: read-out: Δbaseline [10 μM]: change in basal response in presence of M1 PAM compared to control curve. The assay is classed as cell-based. As for the experimental part: Functional activity of the synthesized analogues as racemic mixtures was investigated in IP1 accumulation assays at the M1 mAChR, as described previously.[13–14] ACh concentration-response curves were generated in the absence or presence of a 1 and 10 μM concentration of each modulator. The change in baseline activity (Δbaseline) is an approximate measure of direct allosteric agonism (τB), whereas the pEC50 shift (ΔpEC50) is an approximate measure of functional cooperativity (αβ) of each modulator with ACh in the investigated signalling pathway. We aimed to identify modulators with various degrees of allosteric agonism and modulatory effects on ACh response, as these could generate distinct in vivo outcomes for applications in different conditions in the CNS or gastrointestinal (GI) tract.[[10g,h,j]]
The compounds were then fully characterised in two functional assays (Figure 2C and D); the Gq-coupled IP1 accumulation assay (Figure S2), which was used for the initial screening of the compounds, and a β-arrestin 2 recruitment assay (Figure S3). The operational efficacy (τB) values for the modulators and their functional cooperativity estimates with ACh (logαβACh) at both signalling pathways were estimated by applying an operational model of allosterism and agonism to the data [Eq. (3)],[16] and are listed in Table 5.
FlpIn CHO cells stably expressing the hM1 mAChR were seeded at 25000 per well of 96-well transparent cell culture plates and grown overnight. […] Cells were then stimulated with increasing concentration of ACh in the absence or presence of increasing concentrations of each modulator for 1 h at 37°C. […] Seven μL of cell lysates were transferred into wells of 384-well Proxiplates (Perki-nElmer Life Sciences), and IP1 levels were measured using the IP-One assay kit (Cisbio, Codolet, France). […] The signal was expressed as the HTRF ratio, interpolated from the standard curve, and normalized to the maximum response to ACh.
Changes in both baseline and pEC50 were quantified by subtracting the estimates at each M1 PAM concentrations with the control values. Propagation of the error on baseline and potency values were determined as follows [Eq. (1)]: σΔ=σPAM2+σcont.2 where σΔ is the standard error of the mean (SEM) for the change in value, and σPAM and σcont. are the SEM from the three-parameter logistic equation analysis in presence or absence of M1 PAM, respectively.
Functional interaction studies between ACh and allosteric modulators in IP1 and β-arrestin 2 recruitment assays were analysed according to a three-parameter logistic equation or the following operational model of allosterism and agonism [Eq. (3)].[16] E=Basal+(Em−Basal)([A](KB+αβ[B])+τB[B]EC50)^n/EC50n(KB+[B])^n+([A](KB+αβ[B])+τB[B]EC50)^n where Em is the maximal possible system response, and Basal is the response in the absence of agonist. [A] and [B] are concentrations of orthosteric and allosteric ligands, respectively. KB is the equilibrium dissociation constant of allosteric ligand, and EC50 is the concentration of orthosteric agonist required to achieve half maximal response. α and β represent the magnitude of the allosteric effects on orthosteric ligand affinity and efficacy, respectively; τB is the efficacy of allosteric ligand, and n is the slope factor of the transducer function that links occupancy to response.

We go through 16 molecules from article PMC7616174, “Development of Novel 4-Arylpyridin-2-one and 6-Arylpyrimidin-4-one Positive Allosteric Modulators of the M1 Muscarinic Acetylcholine Receptor” (ChemMedChem, 2020).

As for “4-(2-(Benzyloxy)phenyl)-1-(2-hydroxycyclohexyl)pyridin-2(1H)-one [Compound 27d]”, the “ΔpEC50 [1 μM]: change in ACh pEC50 in presence of M1 PAM compared to control curve” value (from here on “ΔpEC50 [1 μM]: change in ACh pEC50”) was 0.75±0.06. Also, where the note is “10 μM modulator”, the “Δbaseline [10 μM]: change in basal response in presence of M1 PAM compared to control curve” value was 54.6±1.9 % of ACh maximal (Emax) response and the “ΔpEC50 [10 μM]: change in ACh pEC50 in presence of M1 PAM compared to control curve” value (“ΔpEC50 [10 μM]: change in ACh pEC50” for short) worked out at 1.83±0.11.

For the molecule `COc1cccc(OCc2ccc(-c3cnn(C)c3)cc2)c1-c1cc(=O)n([C@H]2CCCC[C@@H]2O)cn1` (racemic) [Compound 26c, 3-(2-Hydroxycyclohexyl)-6-(2-methoxy-6-((4-(1-methyl-1H-pyra-zol-4-yl)benzyl)oxy)phenyl)pyrimidin-4(3H)-one], the “ΔpEC50 [1 μM]: change in ACh pEC50” value is listed as 0.02±0.06 and the activation at 1 µM turned out to be 1.37 ± 1.6%. Besides, the activation at 10 µM (10 μM modulator) stood at 5.99 ± 1.7%.

Take `Cc1ccc(OCc2ccc(-c3cnn(C)c3)cc2)c(-c2ccn(C3CCCCC3O)c(=O)c2)c1` (centres unmarked) [Compound 7a, 1-(2-Hydroxycyclohexyl)-4-(5-methyl-2-((4-(1-methyl-1H-pyrazol-4-yl)benzyl)oxy)phenyl)pyridin-2(1H)-one]: the activation at 1 µM turned out to be 0.47 ± 2%. In addition, where the note is “10 μM modulator”, the “ΔpEC50 [10 μM]: change in ACh pEC50” value came to 0.41±0.07 and the activation at 10 µM turned out to be 4.4 ± 2%.

On to `Cc1ccc(-c2ccn(C3CCCCC3O)c(=O)c2)c(OCc2ccc(-c3cnn(C)c3)cc2)c1` (centres unmarked) [Compound 7b, 1-(2-Hydroxycyclohexyl)-4-(4-methyl-2-((4-(1-methyl-1H-pyrazol-4-yl)benzyl)oxy)phenyl)pyridin-2(1H)-one], for which the activation at 1 µM worked out at 3.5 ± 1.9%. Further, where the note is “10 μM modulator”, the “ΔpEC50 [10 μM]: change in ACh pEC50” value was found to be 0.75±0.08 and the activation at 10 µM was 10.7 ± 2%.

As to `Cc1cc(OCc2ccc(-c3cnn(C)c3)cc2)c(-c2ccn(C3CCCCC3O)c(=O)c2)cc1C` (centres unmarked) [Compound 7c, 4-(4,5-Dimethyl-2-((4-(1-methyl-1H-pyrazol-4-yl)benzyl)oxy)phenyl)-1-(2-hydroxycyclohexyl)pyridin-2(1H)-one], the activation at 1 µM is -1.7%. Moreover, where the note is “10 μM modulator”, the “ΔpEC50 [10 μM]: change in ACh pEC50” value was 0.41±0.08 and the activation at 10 µM came out at 2.8 ± 1.9%.

Regarding `Cn1cc(-c2ccc(COc3ccncc3-c3ccn(C4CCCCC4O)c(=O)c3)cc2)cn1` (centres unmarked) [Compound 7d, 1’-(2-Hydroxycyclohexyl)-4-((4-(1-methyl-1H-pyrazol-4-yl)benzyl)oxy)-[3,4’-bipyridin]-2’(1’H)-one], the “ΔpEC50 [1 μM]: change in ACh pEC50” value is 0.04±0.09 and the activation at 1 µM was -1.09%. For the same molecule, under “10 μM modulator”, the “ΔpEC50 [10 μM]: change in ACh pEC50” value came out at 0.21±0.10 and the activation at 10 µM is 1.24 ± 3%.

For `Cn1cc(-c2ccc(COc3cnccc3-c3ccn(C4CCCCC4O)c(=O)c3)cc2)cn1` (centres unmarked) [Compound 7e, 1-(2-Hydroxycyclohexyl)-3’-((4-(1-methyl-1H-pyrazol-4-yl)benzyl)oxy)-[4,4’-bipyridin]-2(1H)-one], the “ΔpEC50 [1 μM]: change in ACh pEC50” value worked out at 1.17±0.22 and the activation at 1 µM was found to be 41.9 ± 4.4%. For the setting “10 μM modulator”, the “ΔpEC50 [10 μM]: change in ACh pEC50” value is 1.47±0.35 and the activation at 10 µM is 79.4 ± 2.9%.

Consider `Cn1cc(-c2ccc(COc3cccc(O)c3-c3ccn(C4CCCCC4O)c(=O)c3)cc2)cn1` (centres unmarked) [Compound 7g, 4-(2-Hydroxy-6-((4-(1-methyl-1H-pyrazol-4-yl)benzyl)oxy)phenyl)-1-(2-hydroxycyclohexyl)pyridin-2(1H)-one], for which the “ΔpEC50 [1 μM]: change in ACh pEC50” value is listed as 0.14±0.19 and the activation at 1 µM came to 12.8 ± 4.4%. Moreover, where the note is “10 μM modulator”, the “ΔpEC50 [10 μM]: change in ACh pEC50” value was 0.35±0.34 and the activation at 10 µM worked out at 45.8 ± 4.8%.

For the molecule `Cn1cc(-c2ccc(Cn3cccc(-c4ccn(C5CCCCC5O)c(=O)c4)c3=O)cc2)cn1` (centres unmarked) [Compound 9, 1’-(2-Hydroxycyclohexyl)-1-(4-(1-methyl-1H-pyrazol-4-yl)benzyl)-[3,4’-bipyridine]-2,2’(1H,1’H)-dione], the “ΔpEC50 [1 μM]: change in ACh pEC50” value amounted to 0.12±0.09 and the activation at 1 µM was determined as 5 ± 2%. Where the note is “10 μM modulator”, the “ΔpEC50 [10 μM]: change in ACh pEC50” value was 0.69±0.08 and the activation at 10 µM came out at 5.6 ± 2%.

Take `Cn1cc(-c2ccc(COc3ccccc3-c3ccn(C4CCCCC4)c(=O)c3)cc2)cn1` [Compound 13b, 1-Cyclohexyl-4-(2-((4-(1-methyl-1H-pyrazol-4-yl)benzyl)oxy)phenyl)pyridin-2(1H)-one]: the activation at 1 µM was 5 ± 1.7%. Also, under “10 μM modulator”, the “ΔpEC50 [10 μM]: change in ACh pEC50” value was found to be 0.17±0.06 and the activation at 10 µM was -1.9%.

Take `COC1CCCCC1n1ccc(-c2ccccc2OCc2ccc(-c3cnn(C)c3)cc2)cc1=O` (centres unmarked) [Compound 14, 1-(2-Methoxycyclohexyl)-4-(2-((4-(1-methyl-1H-pyrazol-4-yl)benzyl)oxy)phenyl)pyridin-2(1H)-one]: the “ΔpEC50 [1 μM]: change in ACh pEC50” value was found to be 0.03±0.06 and the activation at 1 µM came to 5.8 ± 1.5%. Under “10 μM modulator”, the “ΔpEC50 [10 μM]: change in ACh pEC50” value was 0.96±0.07 and the activation at 10 µM is 22.1 ± 1.6%.

On to `Cn1cc(-c2ccc(COc3ccccc3-c3ccc(-c4ccccc4O)cc3)cc2)cn1` [Compound 19, 2“-((4-(1-Methyl-1H-pyrazol-4-yl)benzyl)oxy)-[1,1’:4’,1“-terphenyl]-2-ol], for which, under “10 μM modulator”, the “ΔpEC50 [10 μM]: change in ACh pEC50” value worked out at 0.27±0.06.

For the molecule `Cn1cc(-c2ccc(COc3ccsc3-c3cc(=O)n(C4CCCCC4O)cn3)cc2)cn1` (centres unmarked) [Compound 26b, 3-(2-Hydroxycyclohexyl)-6-(3-((4-(1-methyl-1H-pyrazol-4-yl)benzyl)oxy)thiophen-2-yl)pyrimidin-4(3H)-one], the activation at 1 µM turned out to be 100%. Moreover, the activation at 10 µM (10 μM modulator) is 100%.

As to `Cn1cc(-c2ccc(COc3cccc(O)c3-c3cc(=O)n(C4CCCCC4O)cn3)cc2)cn1` (centres unmarked) [Compound 26d, 6-(2-Hydroxy-6-((4-(1-methyl-1H-pyrazol-4-yl)benzyl)oxy)phenyl)-3-(2-hydroxycyclohexyl)pyrimidin-4(3H)-one], the “ΔpEC50 [1 μM]: change in ACh pEC50” value is 1.49±0.42 and the activation at 1 µM amounted to 82.1 ± 3%. In addition, under “10 μM modulator”, the activation at 10 µM was determined as 100%.

Consider `O=c1cc(-c2ccccc2OCc2ccc(-n3cccn3)cc2)ncn1C1CCCCC1O` (centres unmarked) [Compound 27c, 6-(2-((4-(1H-Pyrazol-1-yl)benzyl)oxy)phenyl)-3-(2-hydroxycyclo-hexyl)pyrimidin-4(3H)-one], for which the activation at 1 µM is 100%. The activation at 10 µM (10 μM modulator) came to 100%.

Consider `COC1CCCCC1n1cnc(-c2ccccc2OCc2ccc(-c3cnn(C)c3)cc2)cc1=O` (centres unmarked) [Compound 28a, 3-(2-Methoxycyclohexyl)-6-(2-((4-(1-methyl-1H-pyrazol-4-yl)benzyl)oxy)phenyl)pyrimidin-4(3H)-one], for which the “ΔpEC50 [1 μM]: change in ACh pEC50” value worked out at 0.40±0.24 and the activation at 1 µM was 53.7 ± 3.8%. Where the note is “10 μM modulator”, the “ΔpEC50 [10 μM]: change in ACh pEC50” value is given as 0.26±0.55 and the activation at 10 µM was determined as 72.9 ± 3.6%.
